Like-named read-outs stand apart in the source and are kept apart here.
Assays:
Format in all cases: cell-based
[1] = tested on: HT29 (colon); assay: SRB colorimetric cell growth and viability assay, HT29; conditions: read-out: GI50, concentration at which the compound assayed inhibits 50% of the cell growth compared to non-treated cells
[2] = tested on: A549 (lung); assay: SRB colorimetric cell growth and viability assay, A549; conditions: 48 hours of exposure, read-out: GI50, concentration at which the compound assayed inhibits 50% of the cell growth compared to non-treated cells
[3] = tested on: MDA-MB-231 (breast); assay: SRB colorimetric cell growth and viability assay, MDA-MB-231; conditions: 48 hours of exposure, read-out: GI50, concentration at which the compound assayed inhibits 50% of the cell growth compared to non-treated cells
[4] = Homo sapiens, HT-29, 48 hours of exposure

## CO[C@H](C(=O)[C@@H](O)[C@@H](C)O)[C@@H]1Cc2cc3cc(O[C@H]4C[C@@H](O[C@H]5C[C@@H](O)[C@H](O)C(C)O5)[C@H](O)C(C)O4)c(C)c(O)c3c(O)c2C(=O)[C@H]1O[C@H]1C[C@@H](O[C@H]2C[C@](C)(O)[C@H](O)C(C)O2)[C@H](O)C(C)O1 (stereo partly drawn) [formula X, deoliosyl-3C-β-D-mycarosyl-MTM]
[1]; [4]
  GI50: 930 nM
[2]; Homo sapiens
  GI50: 480 nM
[3]; Homo sapiens
  GI50: 370 nM

## CO[C@H](C(=O)[C@@H](O)[C@@H](C)O)[C@@H]1Cc2cc3cc(O[C@H]4CC[C@H](O)C(C)O4)c(C)c(O)c3c(O)c2C(=O)[C@H]1O[C@H]1C[C@@H](O[C@H]2C[C@@H](O[C@H]3C[C@](C)(O)[C@H](O)C(C)O3)[C@@H](O)C(C)O2)[C@H](O)C(C)O1 (stereo partly drawn) [formula XIII]
[1]; [4]
  GI50: 3190 nM
[2]; Homo sapiens
  GI50: 1490 nM
[3]; Homo sapiens
  GI50: 1380 nM

## deoliosyl-demycarosyl-3C-β-D-boivinosyl-MTM [formula XVII]
[1]; 48 hours of exposure
  GI50: > 10000 nM
[2]
  GI50: > 10000 nM
[3]
  GI50: 3720 nM

## CO[C@H](C(=O)[C@@H](O)[C@@H](C)O)[C@@H]1Cc2cc3cc(O[C@H]4C[C@@H](O[C@H]5C[C@@H](O)[C@H](O)C(C)O5)[C@H](O)C(C)O4)c(C)c(O)c3c(O)c2C(=O)[C@H]1O[C@H]1C[C@@H](O[C@H]2C[C@@H](O)[C@@H](O)C(C)O2)[C@H](O)C(C)O1 (stereo partly drawn) [formula XII, demycarosyl-MTM]
[1]; [4]
  GI50: > 10000 nM
[2]; Homo sapiens
  GI50: 1810 nM
[3]; Homo sapiens
  GI50: 1280 nM

## 6-dediolivosyl-6-β-D-amicetosyl-deoliosyl-demycarosyl-3C-β-D-boivinosyl-MTM [formula XVIII]
[1]; 48 hours of exposure
  GI50: 2010 nM
[2]
  GI50: 750 nM
[3]
  GI50: 400 nM

## CO[C@H](C(=O)[C@@H](O)[C@@H](C)O)[C@@H]1Cc2cc3cc(O[C@H]4C[C@@H](O[C@H]5C[C@@H](O)[C@H](O)C(C)O5)[C@H](O)C(C)O4)c(C)c(O)c3c(O)c2C(=O)[C@H]1O[C@H]1C[C@@H](O[C@H]2C[C@H](O[C@H]3C[C@](C)(O)[C@H](O)C(C)O3)[C@@H](O)C(C)O2)[C@H](O)C(C)O1 (stereo partly drawn) [formula IX, deoliosyl-3C-α-L-digitoxosyl-MTM]
[1]; [4]
  GI50: 3870 nM
[2]; Homo sapiens
  GI50: 2670 nM
[3]; Homo sapiens
  GI50: 1940 nM

## CO[C@H](C(=O)[C@@H](O)[C@@H](C)O)[C@@H]1Cc2cc3cc(O[C@H]4C[C@@H](O)[C@H](O)C(C)O4)c(C)c(O)c3c(O)c2C(=O)[C@H]1O[C@H]1C[C@@H](O[C@H]2C[C@@H](O[C@H]3C[C@](C)(O)[C@H](O)C(C)O3)[C@@H](O)C(C)O2)[C@H](O)C(C)O1 (stereo partly drawn) [formula XI, 3A-deolivosyl-MTM]
[1]; [4]
  GI50: 710 nM
[2]; Homo sapiens
  GI50: 750 nM
[3]; Homo sapiens
  GI50: 450 nM

## 6-dediolivosyl-6-β-D-amicetosyl-deoliosyl-demycarosyl-3C-β-D-olivosyl-3D-β-D-digitoxosyl-MTM [formula XX]
[1]; 48 hours of exposure
  GI50: > 10000 nM
[2]
  GI50: > 10000 nM
[3]
  GI50: > 10000 nM

## 6-dediolivosyl-6-β-D-amicetosyl-deoliosyl-3C-β-D-olivosyl-MTM [formula XXI]
[1]; 48 hours of exposure
  GI50: 940 nM
[2]
  GI50: 440 nM
[3]
  GI50: 470 nM

## CO[C@H](C(=O)[C@@H](O)[C@@H](C)O)[C@@H]1Cc2cc3cc(O[C@H]4C[C@@H](O[C@H]5C[C@@H](O)[C@H](O)C(C)O5)[C@H](O)C(C)O4)c(C)c(O)c3c(O)c2C(=O)[C@H]1O[C@H]1C[C@@H](O[C@H]2C[C@@H](O[C@H]3C[C@@H](O)[C@H](O)C(C)O3)[C@@H](O)C(C)O2)[C@H](O)C(C)O1 (stereo partly drawn) [formula VIII]
[1]; [4]
  GI50: 270 nM
[2]; Homo sapiens
  GI50: 190 nM
[3]; Homo sapiens
  GI50: 230 nM

## deoliosyl-demycarosyl-3C-β-D-olivosyl-3D-β-D-digitoxosyl-MTM [formula XIX]
[1]; 48 hours of exposure
  GI50: 5980 nM
[2]
  GI50: 910 nM
[3]
  GI50: 690 nM

From patent US8426169B2, “Glycosylate derivatives of mithramycin, method of preparation and uses thereof” (University of Kentucky Research Foundation, priority 2007, dated 2013)
